Experiment [1] relates to MCF7 cells. Nature of the experiment: Colony formation survival assay, MCF7 cells. The note with it: MCF7 cells. It is filed as cell-based, human. The protocol:
FIG. 15. […] B. Combination index. Combination index (CI) was derived using the data shown in A and the formula: […]
(§1) For each potency ratio, combination index of three effective concentrations at IC30, IC50, and IC70 were calculated for synergistic effects using Prism 7.0.
(§2) Cells were then harvested and re-plated in 6-well plates at a density of 200 cells/well followed by IR treatment at different doses and colony formation assay or collection of cells for Western blot analysis. Concentration-response curves and IC50 values were calculated using Prism 7.0 (GraphPad, La Jolla, USA).

A further experiment relates to MDA-MB-231 cells. The experiment is described as follows: Colony formation survival assay, MDA-MB-231 cells. It is filed as cell-based. The following applies: Homo sapiens, single agent, read-out: IC50, cell survival.
Experiment [2] relates to MDA-MB-468 cells. The experiment is described as follows: Colony formation survival assay, MDA-MB-468 cells. It is filed as cell-based, human. The note with it: pre-treated with 10 μM lansoprazole for 3 days. The protocol: as §1, §2
The subject of another experiment is PARP1 expression. Nature of the experiment: Western blot of PARP1 expression in 4 breast cancer cell lines. The note with it: lansoprazole at different concentrations, all 4 cell lines. It is filed as cell-based, human. The text has this: FIG. 18. Role of FASN in mediating PPI effect. A, Western blot analysis of FASN and PARP1 expression in MCF7 cells with ectopic FASN over-expression and in drug resistant MCF7/AdVp3000 (M3K) cells with FASN knockdown. […] E, Rescue of lansoprazole-induced reduction in NHEJ activity by ectopic FASN over-expression. […] G, Ablation of lansoprazole-induced γH2AX level increase by ectopic FASN over-expression as determined using Western blot analysis. Actin was used as loading control for all Western blot analyses.
FASN can regulate NHEJ repair activity by regulating PARP1 expression (Wu et al., 2017).
Cells were harvest and then lysed in TNN buffer with 1 mM DTT, 1 mM PMSF and 0.1% SDS for 30 min at 4° C. with occasional agitation. The cells were sonicated briefly and total proteins were harvested after centrifugation of the lysate at 16,000 g for 15 minutes at to remove cell debris. The protein concentration of cell lysates was determined using a Bio-Rad protein assay kit. […]

In experiment [3] the test system is NHEJ activity in MCF7 cells. The experiment is described as follows: Host cell reactivation NHEJ assay, MCF7 cells. The following applies: 10 μM, three days. Type of experiment: cell-based, human. The protocol: (§3) The host cell reactivation NHEJ assay was carried out as previously described (Wu et al., 2017) with minor modifications. Briefly, 1×10^4 cells were seeded in 24-well plates, cultured overnight and then treated with 10 μM Lansoprzole or vehicle every day for three days before transfection with either linearized or intact pGL3-luc firefly luciferase plasmids (400 ng) using Lipofectamine 2000 (Invitrogen). pGL3-luc plasmid was linearized by HindIII digestion, and linearization was verified by DNA agarose gel electrophoresis before transfection. pRL-TK (Promega) plasmid which encodes renilla luciferase was co-transfected (400 ng) as a control for transfection efficiency. 8 hours after transfection, cells were harvested and assayed for luciferase activity with Dual Luciferase Assay (Promega) on a luminometer. Firefly luciferase signal were normalized to renilla luciferase signal in each group. Overall NHEJ activity was calculated by firefly luciferase activity from cells transfected with linearized plasmid relative to that of the intact plasmid.

Experiment [4] concerns NHEJ activity in MDA-MB-468 cells. The experiment is described as follows: Host cell reactivation NHEJ assay, MDA-MB-468 cells. The following applies: 10 μM, three days. Type of experiment: cell-based, human. The protocol:
as §3

For a further experiment, the system named is γ-H2AX in MCF7 cells. Nature of the experiment: Western blot of γ-H2AX, MCF7 cells. The note with it: lansoprazole alone. Type of experiment: cell-based, human. As to the method: (§4) Furthermore, the lansoprazole-induced γ-H2AX increase in MCF7 cells was ablated by over-expressing ectopic FASN (FIG. 18G).
(§5) Cells were harvest and then lysed in TNN buffer with 1 mM DTT, 1 mM PMSF and 0.1% SDS for 30 min at 4° C. with occasional agitation. The cells were sonicated briefly and total proteins were harvested after centrifugation of the lysate at 16,000 g for 15 minutes at to remove cell debris. The protein concentration of cell lysates was determined using a Bio-Rad protein assay kit. Total cell lysates were then separated by SDS-PAGE, transferred to a polyvinylidene fluoride membrane, and probed using antibodies against fatty acid synthase (610963, BD biosciences), PARP-1 (46D11, CST), γ-H2AX (05-636, Millipore), and (3-Actin (A2228, Sigma). The blot was then probed with horseradish peroxidase-conjugated secondary antibodies (Sigma) and signals were captured on X-ray films following developing with Amersham ECL Western Blotting Detection Reagent (RPN2106, GE).
(A western blot detects proteins with antibodies after separation by electrophoresis.)

For experiment [5], the system named is γ-H2AX in MDA-MB-468 cells. Nature of the experiment: Western blot of γ-H2AX, MDA-MB-468 cells. It is filed as cell-based, human. The note with it: lansoprazole alone. As to the method: as §4, §5
Experiment [6] concerns MCF7 cells. Nature of the experiment: Apoptosis and cell cycle distribution, MCF7 cells. It is filed as cell-based, human. The protocol:
(§6) Cancer cells were plated in 6-well plates at a density of 2×10^5 cells/well, cultured overnight. […] Cells were washed with PBS and fixed ice cold 70% ethanol overnight. After centrifugation, pellets were resuspended in PBS, stained with propidium iodide solution for 30 min in the dark and analyzed by flow cytometry.

The test system of experiment [7] is MDA-MB-468 cells. Nature of the experiment: Apoptosis and cell cycle distribution, MDA-MB-468 cells. Type of experiment: cell-based, human. The protocol:
as §6

In the next experiment the test system is breast cancer patients. The experiment is described as follows: Retrospective survival analysis of electronic medical records of breast cancer patients. Type of experiment: in vivo, human. As to the method: FIG. 16. Retrospective survival analysis of breast cancer patients with or without use of proton pump inhibitors (PPIs). De-identified electronic medical records of 6,752 breast cancer patients were retrieved from the database of Indiana Network for Patient Care (INPC) and subjected to Kaplan-Meier survival analysis in association with PPI usage in all patients (A) or in triple negative breast cancer patient subgroup (B). The p-value and hazard ratio (HR) were calculated from Cox proportional hazard models, which were adjusted for age, tumor stage, and time of first diagnosis.
Because PPIs are widely used for treatment of a variety of acid-related digestive disorders, many cancer patients may use PPIs without the knowledge that the combination of PPIs with their chemotherapy may have helped them. To this end, a retrospective association analysis was conducted using de-identified electronic medical records (EMR) of 6,752 breast cancer patients from Indiana Network for Patient Care (INPC). The average age at diagnosis is 58.9 years (range 19-102) and average age at death or last visit is 61.5 (range 21-104). Of this cohort, 534 patients took one or more PPIs after diagnosis as recorded in the EMR. There are 488 triple negative breast cancer (TNBC) patients, among them 35 used PPIs. Using the Cox proportional hazard regression model, the patient overall survival was analyzed against PPI usage. […] The protective effect of PPIs on patient survival was adjusted for age, tumor stage, and time of first diagnosis.
The patient database contains three domains of electronic medical records (EMR) of 6,752 de-identified breast cancer patients from Indiana Network for Patient Care (INPC). The first domain contains patient characteristics as shown in Supplemental Table 51. The second domain contains medical test results including body weight, blood tests, and office visit information. The third domain contains prescription information for each patient. The use of this database has been approved by IRB at Indiana University for this study.
The first task is to remove null and duplicated values and to resolve contradicting records. For patients that have contradicting records, different rules for different conflicts were followed. For conflicts on the first visit or diagnosis time, the earlier record at younger age were used as the first diagnosis and considered the later one as system update. For all other information including diagnosis information such as cancer subtype, the latest record was used as it is thought to be more accurate.
Next, the plain text information from the first domain of the database including but not limited to ER, PR, and HER2 test results, treatment plans, and therapy types were digitized. The record that is not clear was marked as unknown. For example, the HER2 status with a 2+ score, a borderline score, from IHC staining was usually confirmed with FISH test. Patients with a 2+ score but without a FISH test result were considered unknown in this study.
Further, the days of patient survival from data in the first domain were validated using prescription history of the same patient in the third domain of the database. When there is a conflict, the last day of office visit or prescription refill, whichever is later, was recorded as the last day of visit or death. Moreover, patients who took PPIs prior to their diagnosis of breast cancer but stopped taking them after diagnosis were considered non-PPI users in this study.

For experiment [8], the system named is MCF7, T47D, MDA-MB-231, and MDA-MB-468 cells. The experiment is described as follows: Colony formation survival assay, four breast cancer cell lines.
Experimental: Next, tested whether PPIs inhibit survival of breast cancer cell lines with different levels of FASN expression (FIG. 17B) using colony formation assay.
Briefly, breast cancer cells were seeded in six-well plates at 200 cells/well and cultured overnight followed by treatments without or with PPIs at different concentrations for 14 days. The colonies formed were then washed with PBS, fixed in 100% methanol and stained with 0.5% crystal violet in 25% methanol. The stained colonies were counted manually and concentration-response curves with IC50 were generated using Prism 7.0 (GraphPad, La Jolla, USA).

A word on the IC50: it is the concentration at which inhibition is half-maximal. Regarding `Cc1c(OCC(F)(F)F)ccnc1C[S+]([O-])c1nc2ccccc2[nH]1` (centres unmarked) [lansoprazole], the IC50 in the experiment on MCF7 cells [1] (Homo sapiens, single agent, colony formation, read-out: IC50, cell survival) is 1.3 ± 0.7 µM; in the experiment on MDA-MB-231 cells, 21.4 ± 4.1 µM. The “sensitization to IR treatment” value with MCF7 cells [1] (pre-treated with 10 μM lansoprazole for 3 days) and in the experiment with MDA-MB-468 cells [2] was “sensitized” each time. The PARP1 expression result with PARP1 expression was “dose-dependently reduced”. The NHEJ activity result in [3] and in experiment [4] was “significantly reduced” throughout. In addition, the “level of γ-H2AX” value (in the experiment with γ-H2AX in MCF7 cells; in experiment [5]) was “increased the level of γ-H2AX in a dose-dependent manner” throughout. Also, the apoptosis result in the experiment on MCF7 cells [6] and in the experiment with MDA-MB-468 cells [7] was “dose-dependently induced apoptosis” throughout. Besides, the cell cycle distribution entry is recorded as “cell cycle arrest at G1” in the experiment on MCF7 cells [6] and “S phase” in the experiment with MDA-MB-468 cells [7]. In addition, the “HR (CoxPH ratio), overall survival” value came to 0.68 in the experiment on breast cancer patients (pairwise versus Omeprazole users, all patients) and 0.17 with breast cancer patients (single-PPI users versus No PPI, all breast cancer patients). Moreover, the “HR, overall survival” value in the experiment on breast cancer patients (versus No PPI, African American (AA) patients) is reported as 1.09*10^−7; in the experiment with breast cancer patients (versus No PPI, Caucasian (CA) patients), 0.18; in the experiment on breast cancer patients (versus Omeprazole, AA patients) it was 3.99*10^−9; in the experiment on breast cancer patients (versus Omeprazole, CA patients) it was 0.81. Moreover, the “inhibition of breast cancer cell survival, comparison among PPIs” value in experiment [8] is “the most effective one for all 4 cell lines”.

For the origin of these results see patent US11491147B2, “Combination drug therapy reduces PARP-1 related DNA repair and increases the efficacy of genotoxic agents” (Indiana University Research and Technology Corporation, priority 2016, dated 2022).
